Among the data in patent publication US7163940B2, “Pyrazolopyridinyl pyrimidine therapeutic compounds” (SmithKline Beecham Corporation, priority 2000, dated 2007) are IC50 values, retold here.

SMILES strings stand for the structures. Counter-ions that a name gives are not always drawn.

One assay concerns HSV-1. Briefly: HSV-1 replication in infected Vero 76 cells, viral DNA hybridization capture assay. The assay is classed as cell-based. As to conditions: HSV-1, Vero 76 cells, MOI=0.001, 40–48 hours incubation. As for the experimental part: Vero 76 cells were maintained in MEM with Earle's salts, L-glutamine, 8% FBS (Hyclone, A-1111-L) and 100 units/mL Penicillin-100 μg/mL Streptomycin. For assay conditions, FBS was reduced to 2%. Cells are seeded into 96-well tissue culture plates at a density of 5×10^4 cells/well after being incubated for 45 min at 37° C. in the presence of HSV-1 or HSV-2 (MOI=0.001). Test compounds are added to the wells and the plates are incubated at 37° C. for 40–48 hours. Cell lysates are prepared as follows: media was removed and replaced with 150 μL/well 0.2 N NaOH with 1% Igepal CA 630 or NP-40. Plates were incubated up to 14 days at room temperature in a humidified chamber to prevent evaporation. • (b) Preparation of Detection DNA.
For the detection probe, a gel-purified, digoxigenin-labeled, […] PCR fragment of the HSV UL-15 sequence was utilized. PCR conditions included 0.5 μM primers, 180 μM dTP, 20 μM dUTP-digoxigenin (Boehringer Mannheim 1558706), 200 μM each of dATP, dCTP, and dGTP, 1×PCR Buffer II (Perkin Elmer), 2.5 mM MgCl2, 0.025 units/μL of AmpliTaq Gold polymerase (Perkin Elmer), and 5 ng of gel-purified HSV DNA per 100 μL. Extension conditions were 10 min at 95° C., followed by 30 cycles of 95° C. for 1 min, 55° C. for 30 sec, and 72° C. for 2 min. The amplification was completed with a 10-min incubation at 72° C. Primers were selected to amplify a 728 bp probe spanning a section of the HSV1 UL15 open reading frame (nucleotides 249–977). Single-stranded transcripts were purified with Promega M13 Wizard kits. The final product was mixed 1:1 with a mixture of 6 M GuSCN, 100 mM EDTA and 200 μg/mL herring sperm DNA and stored at 4° C. • (c) Preparation of Capture Plates.
The capture DNA plasmid (HSV UL13 region in pUC) was linearized by cutting with Xba I, denatured for 15 min at 95° C. and diluted immediately into Reacti-Bind DNA Coating Solution (Pierce, 17250, diluted 1:1 with TE buffer, pH 8) at 1 ng/μL 75 μL/well were added to Corning (#3922 or 9690) white 96-well plates and incubated at room temperature for at least 4 hrs before washing twice with 300 μL/well 0.2×SSC/0.05% Tween-20 (SSC/T buffer). The plates were then incubated overnight at room temperature with 150 μL/well 0.2 N NaOH, 1% IGEPAL and 10 μg/mL herring sperm DNA. • (d) Hybridization.
Twenty-seven (27) μL of cell lysate was combined with 45 μL of hybridization solution (final concentration: 3M GuSCN, 50 mM EDTA, 100 μg/ml salmon sperm DNA, 5× Denhardt's solution, 0.25×APE, and 5 ng of the digoxigenin-labeled detection probe). APE is 1.5 M NH4-acetate, 0.15 M ammonium phosphate, and 5 mM EDTA adjusted to pH 6.0. Mineral oil (50 μL) was added to prevent evaporation. The hybridization plates were incubated at 95° C. for 10 minutes to denature the DNA, then incubated at 42° C. overnight. The wells were washed 6× with 300 μL/well SSC/T buffer then incubated with 75 μL/well anti-digoxigenin-HRP-conjugated antibody (Boehringer Mannheim 1207733, 1:5000 in TE) for 30 min at room temperature. The wells were washed 6× with 300 μL/well with PBS/0.05% Tween-20 before 75 μL/well SuperSignal LBA substrate (Pierce) was added. The plates were incubated at room temperature for 30 minutes and chemiluminescence was measured in a Wallac Victor reader. • e) Results.
The following results were obtained for HSV-1.
With `Cc1cc(-c2c(-c3ccc(F)cc3)nn3c(NC4CCCC4)cccc23)nc(NC2CCCC2)n1` [Example 8, N-Cyclopentyl-3-[2-(cyclopentylamino)-6-methyl-4-pyrimidinyl]-2-(4-fluorophenyl)pyrazolo[1,5-α]pyridin-7-amine], the IC50 was determined as 800 nM.

The assay is the same for the next values; noted with them: Human alphaherpesvirus 1, Vero 76, HSV-1, Vero 76 cells, MOI=0.001, 40–48 hours incubation.
Consider `Fc1ccc(-c2nn3c(NC4CCCC4)cccc3c2-c2ccnc(NC3CCCC3)n2)cc1` [Example 1, N-cyclopentyl-3-[2-(cyclopentylamino)-4-pyrimidinyl]-2-(4-fluorophenyl)pyrazolo[1,5-α]pyridin-7-amine], for which it took 300 nM to reach half-maximal inhibition (IC50).

`CCCCNc1nccc(-c2c(-c3ccc(Br)cc3)nn3c(NCCCC)cccc23)n1` [Example 2, 2-(4-Bromophenyl)-N-butyl-3-[2-(butylamino)-4-pyrimidinyl]pyrazolo[1,5-α]pyridin-7-amine] registered an IC50 of 700 nM.

For `CCCCNc1nccc(-c2c(-c3ccc(F)cc3)nn3c(NCCCC)cccc23)n1` [Example 3, N-Butyl-3-[2-(butylamino)-4-pyrimidinyl]-2-(4-fluorophenyl)pyrazolo-[1,5-α]pyridin-7-amine], the IC50 is 500 nM.

For `CCCCNc1cccc2c(-c3ccnc(NC4CC4)n3)c(-c3ccc(F)cc3)nn12` [Example 4, N-Butyl-3-[2-(cyclopropylamino)-4-pyrimidinyl]-2-(4-fluorophenyl)-pyrazolo[1,5-α]pyridin-7-amine], the IC50 came out at 600 nM.

`CCCCNc1cccc2c(-c3ccnc(N4CCCC4)n3)c(-c3ccc(F)cc3)nn12` [Example 5, N-Butyl-2-(4-fluorophenyl)-3-[2-(1-pyrrolidinyl)-4-pyrimidinyl]pyrazolo[1,5-α]pyridin-7-amine] had an IC50 of 5000 nM.

In the case of `CCCCNc1cccc2c(-c3ccnc(NC4CCCC4)n3)c(-c3ccc(F)cc3)nn12` [Example 6, N-Butyl-3-[2-(cyclopentylamino)-4-pyrimidinyl]-2-(4-fluorophenyl)pyrazolo[1,5-α]pyridin-7-amine], the IC50 amounted to 200 nM.

`Cc1cc(-c2c(-c3ccc(F)cc3)nn3c(Cl)cccc23)nc(NC2CCCC2)n1` [Example 7, 4-[7-Chloro-2-(4-fluorophenyl)pyrazolo[1,5-α]pyridin-3-yl]-N-cyclopentyl-6-methyl-2-pyrimidinamine] had an IC50 of 3900 nM.

In turn, `CCCCNc1cccc2c(-c3ccnc(N4CCCC4)n3)c(-c3ccc(Br)cc3)nn12` [Example 9, 2-(4-Bromophenyl)-N-butyl-3-[2-(1-pyrrolidinyl)-4-pyrimidinyl]pyrazolo[1,5-α]pyridin-7-amine] displayed an IC50 of 8000 nM. Against the preceding compound, the IC50 is about 2.1-fold higher.

The compound `CCCCNc1cccc2c(-c3ccnc(NC4CCCC4)n3)c(-c3ccc(Br)cc3)nn12` [Example 10, 2-(4-Bromophenyl)-N-butyl-3-[2-(cyclopentylamino)-4-pyrimidinyl]pyrazolo[1,5-α]pyridin-7-amine] showed an IC50 of 5000 nM.

`CN(C)c1nccc(-c2c(-c3ccc(F)cc3)nn3c(NC4CCCC4)cccc23)n1` [Example 11, N-Cyclopentyl-3-[2-(dimethylamino)-4-pyrimidinyl]-2-(4-fluorophenyl)pyrazolo[1,5-α]pyridin-7-amine] returned an IC50 of 1000 nM.

`Nc1nccc(-c2c(-c3ccc(F)cc3)nn3c(NC4CCCC4)cccc23)n1` [Example 12, 3-(2-Amino-4-pyrimidinyl)-N-cyclopentyl-2-(4-fluorophenyl)pyrazolo[1,5-α]pyridin-7-amine] displayed an IC50 of 500 nM.

Compound `Fc1ccc(-c2nn3c(NC4CCCC4)cccc3c2-c2ccnc(NCCCN3CCOCC3)n2)cc1` [Example 13, N-Cyclopentyl-2-(4-fluorophenyl)-3-(2-{[3-(4-morpholinyl)propyl]-amino}-4-pyrimidinyl)pyrazolo[1,5-α]pyridin-7-amine] displayed an IC50 of 6000 nM.

Compound `Cc1cc(-c2c(-c3ccc(F)cc3)nn3c(NN)cccc23)nc(NC2CCCC2)n1` [Example 14, N-Cyclopentyl-4-[2-(4-fluorophenyl)-7-hydrazinopyrazolo[1,5-α]pyridin-3-yl]-6-methyl-2-pyrimidinamine] yielded an IC50 of 5000 nM.

For `Cc1cc(-c2c(-c3ccc(F)cc3)nn3c(N4CCN(C)CC4)cccc23)nc(NC2CCCC2)n1` [Example 15, N-Cyclopentyl-4-[2-(4-fluorophenyl)-7-(4-methyl-1-piperazinyl)pyrazolo[1,5-α]pyridin-3-yl]-6-methyl-2-pyrimidinamine], the IC50 came to 5000 nM.

Compound `Fc1ccc(-c2nn3c(NC4CCCC4)cccc3c2-c2cc(COC3CCCCO3)nc(NC3CCCC3)n2)cc1` (stereo not drawn) [Example 16, N-Cyclopentyl-3-{2-(cyclopentylamino)-6-[(tetrahydro-2H-pyran-2-yloxy)methyl]-4-pyrimidinyl}-2-(4-fluorophenyl)pyrazolo[1,5-α]pyridin-7-amine] came in with an IC50 of 40000 nM.

`OCc1cc(-c2c(-c3ccc(F)cc3)nn3c(Cl)cccc23)nc(NC2CCCC2)n1` [Example 17, [6-[7-Chloro-2-(4-fluorophenyl)pyrazolo[1,5-α]pyridin-3-yl]-2-(cyclopentylamino)-4-pyrimidinyl]methanol] showed an IC50 of 3000 nM. This IC50 lies about 13-fold lower than the previous one.

Turning to `CN(CC(=O)O)c1nccc(-c2c(-c3ccc(F)cc3)nn3c(NC4CCCC4)cccc23)n1` [Example 18, [{4-[7-(Cyclopentylamino)-2-(4-fluorophenyl)pyrazolo[1,5-α]pyridin-3-yl]-2-pyrimidinyl}(methyl)amino]acetic acid], the IC50 was 20000 nM.

Compound `CN1CCN(c2cccc3c(-c4cc(-c5ccccc5)nc(NC5CCCC5)n4)c(-c4ccc(F)cc4)nn23)CC1` [Example 19, N-Cyclopentyl-4-[2-(4-fluorophenyl)-7-(4-methyl-1-piperazinyl)pyrazolo[1,5-α]pyridin-3-yl]-6-phenyl-2-pyrimidinamine hydrochloride] came in with an IC50 of 2500 nM.

For the compound `NCCNc1cccc2c(-c3cc(-c4ccccc4)nc(NC4CCCC4)n3)c(-c3ccc(F)cc3)nn12` [Example 20, N′-[3-[2-(Cyclopentylamino)-6-phenyl-4-pyrimidinyl]-2-(4-fluorophenyl)pyrazolo[1,5-α]pyridin-7-yl]-1,2-ethanediamine], the IC50 was 3000 nM.

`Nc1cccc2c(-c3ccnc(NC4CCCC4)n3)c(-c3ccc(F)cc3)nn12` [Example 21, 3-[2-(Cyclopentylamino)-4-pyrimidinyl]-2-(4-fluorophenyl)pyrazolo[1,5-α]pyridin-7-amine] showed an IC50 of 1000 nM.

`OCc1cc(-c2c(-c3ccc(F)cc3)nn3c(NC4CCCC4)cccc23)nc(NC2CCCC2)n1` [Example 22, {2-(Cyclopentylamino)-6-[7-(cyclopentylamino)-2-(4-fluorophenyl)pyrazolo[1,5-α]pyridin-3-yl]-4-pyrimidinyl}methanol] came in with an IC50 of 5000 nM.

Turning to `COc1ccc(Nc2cccc3c(-c4ccnc(NC5CCCC5)n4)c(-c4ccc(F)cc4)nn23)cc1` [Example 23, 3-[2-(Cyclopentylamino)-4-pyrimidinyl]-2-(4-fluorophenyl)-N-(4-methoxyphenyl)pyrazo[1,5-α]pyridin-7-amine], the IC50 stood at 1000 nM.

With `COC(=O)CNc1cccc2c(-c3cc(C)nc(NC4CCCC4)n3)c(-c3ccc(F)cc3)nn12` [Example 24, Methyl {[3-[2-(cyclopentylamino)-6-methyl-4-pyrimidinyl]-2-(4-fluorophenyl)pyrazolo[1,5-α]pyridin-7-yl]amino}acetate], the IC50 was found to be 10000 nM. This IC50 is about 10-fold higher than that of the compound before.

Compound `Cc1cc(-c2c(-c3ccc(F)cc3)nn3c(NCC(=O)O)cccc23)nc(NC2CCCC2)n1` [Example 25, {[3-[2-(Cyclopentylamino)-6-methyl-4-pyrimidinyl]-2-(4-fluorophenyl)pyrazolo[1,5-α]pyridin-7-yl]amino}acetic acid] yielded an IC50 of 15000 nM. This IC50 lies about 1.5-fold higher than the previous one.

What is called IC50 is the point on the concentration scale where inhibition reaches its midpoint. Low values mean greater potency in that assay, high ones weaker potency in that assay.
